# Experimental data taken from ChEMBL document CHEMBL1127970, “Dual metalloprotease inhibitors. IV. Utilization of thiazepines and thiazines as constrained peptidomimetic surrogates in mercaptoacyl dipeptides” (Bioorg Med Chem Lett, 1994).
# Tests used:
# [1] = target: T1, Angiotensin-converting enzyme (Rattus norvegicus, UniProt P47820); test: In vitro inhibition of angiotensin converting enzyme isolated from rat lung.; conditions: read-out: I50
# T1 sequence (P47820 whole entry): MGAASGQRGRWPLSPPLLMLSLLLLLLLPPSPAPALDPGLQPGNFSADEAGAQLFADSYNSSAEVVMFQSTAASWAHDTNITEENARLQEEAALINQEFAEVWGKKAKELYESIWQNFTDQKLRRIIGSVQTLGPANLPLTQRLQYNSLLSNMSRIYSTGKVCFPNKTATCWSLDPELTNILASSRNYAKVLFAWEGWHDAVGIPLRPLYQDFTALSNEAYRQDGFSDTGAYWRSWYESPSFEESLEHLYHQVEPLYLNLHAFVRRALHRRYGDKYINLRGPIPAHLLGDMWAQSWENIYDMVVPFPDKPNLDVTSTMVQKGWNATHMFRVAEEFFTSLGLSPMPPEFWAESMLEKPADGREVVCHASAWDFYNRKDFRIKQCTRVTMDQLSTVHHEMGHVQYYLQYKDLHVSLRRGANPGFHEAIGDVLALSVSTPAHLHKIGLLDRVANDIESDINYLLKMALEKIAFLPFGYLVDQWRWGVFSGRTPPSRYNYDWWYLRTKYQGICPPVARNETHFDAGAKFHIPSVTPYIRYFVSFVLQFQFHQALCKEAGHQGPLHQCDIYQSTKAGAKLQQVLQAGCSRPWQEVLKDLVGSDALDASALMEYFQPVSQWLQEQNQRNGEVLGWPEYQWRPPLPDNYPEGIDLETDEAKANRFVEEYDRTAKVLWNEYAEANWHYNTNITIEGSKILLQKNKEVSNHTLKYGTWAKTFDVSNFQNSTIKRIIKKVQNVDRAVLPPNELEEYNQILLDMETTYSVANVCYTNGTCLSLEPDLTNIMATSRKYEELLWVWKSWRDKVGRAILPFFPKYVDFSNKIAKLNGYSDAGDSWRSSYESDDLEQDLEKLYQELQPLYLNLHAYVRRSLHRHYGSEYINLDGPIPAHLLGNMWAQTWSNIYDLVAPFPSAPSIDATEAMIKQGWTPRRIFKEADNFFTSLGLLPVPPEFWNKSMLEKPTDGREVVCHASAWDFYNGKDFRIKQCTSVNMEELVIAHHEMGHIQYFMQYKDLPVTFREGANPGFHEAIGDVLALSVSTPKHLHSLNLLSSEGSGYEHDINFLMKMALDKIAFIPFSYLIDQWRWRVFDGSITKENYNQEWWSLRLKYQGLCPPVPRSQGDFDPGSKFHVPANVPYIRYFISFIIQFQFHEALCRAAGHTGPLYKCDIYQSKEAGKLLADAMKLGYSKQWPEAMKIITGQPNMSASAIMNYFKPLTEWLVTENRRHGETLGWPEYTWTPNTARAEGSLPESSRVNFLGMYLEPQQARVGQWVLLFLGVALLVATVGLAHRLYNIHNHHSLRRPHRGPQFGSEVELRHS
# [2] = test system: Rattus norvegicus; test: Effective dose required to inhibit angiotensin 1(AI) induced pressor response in normotensive rats when administered intravenously; format: functional; conditions: iv
# [3] = target: T2, Neprilysin (Rattus norvegicus, UniProt P07861); test: In vitro inhibition of Neutral Endopeptidase isolated from rat kidney.; conditions: read-out: I50
# T2 sequence (P07861 whole entry): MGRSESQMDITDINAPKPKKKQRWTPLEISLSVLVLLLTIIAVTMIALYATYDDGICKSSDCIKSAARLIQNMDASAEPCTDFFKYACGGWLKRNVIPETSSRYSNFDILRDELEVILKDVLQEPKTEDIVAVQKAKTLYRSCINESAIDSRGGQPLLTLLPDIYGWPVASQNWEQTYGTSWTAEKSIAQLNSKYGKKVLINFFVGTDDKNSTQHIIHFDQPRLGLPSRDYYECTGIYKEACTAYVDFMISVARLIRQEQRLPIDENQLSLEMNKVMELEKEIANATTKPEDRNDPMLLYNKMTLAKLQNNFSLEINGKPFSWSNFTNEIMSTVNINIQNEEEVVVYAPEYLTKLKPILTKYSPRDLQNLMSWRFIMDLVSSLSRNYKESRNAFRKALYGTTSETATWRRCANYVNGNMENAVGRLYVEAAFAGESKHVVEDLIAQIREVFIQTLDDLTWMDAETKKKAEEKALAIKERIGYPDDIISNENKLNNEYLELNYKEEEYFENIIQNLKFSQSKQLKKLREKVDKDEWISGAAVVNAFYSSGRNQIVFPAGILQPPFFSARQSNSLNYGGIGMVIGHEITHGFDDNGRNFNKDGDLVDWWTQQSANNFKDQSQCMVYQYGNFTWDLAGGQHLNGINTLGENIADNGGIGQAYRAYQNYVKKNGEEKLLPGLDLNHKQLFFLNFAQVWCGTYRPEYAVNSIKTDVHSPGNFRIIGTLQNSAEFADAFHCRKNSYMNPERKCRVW
SMILES,IC50 [1] [nM],IC50 [3] [nM],ED50 [2] [µmol/kg]
O=C(O)CN1CCSC[C@H](NC(=O)[C@@H](CS)Cc2ccccc2)C1=O,100,–,–
O=C(O)CN1C(=O)[C@@H](NC(=O)[C@@H](CS)Cc2ccccc2)CS[C@@H]1c1ccccc1,167,2.5,–
O=C(O)CN1CCSC[C@H](NC(=O)[C@@H](S)Cc2ccccc2)C1=O,67,244,4.4
O=C(O)CN1C[C@H](c2ccccc2)SC[C@H](NC(=O)[C@@H](S)Cc2ccccc2)C1=O,290,2040,–
O=C(O)CN1CSCC[C@H](NC(=O)[C@@H](S)Cc2ccccc2)C1=O,61,535,–
O=C(O)CN1C(=O)[C@H](NC(=O)[C@@H](CS)Cc2ccccc2)CS[C@@H]1c1ccccc1,123,126,–
O=C(O)CN1C(=O)[C@@H](NC(=O)[C@@H](S)Cc2ccccc2)CS[C@H]1c1ccccc1,73,–,–
O=C(O)CN1C(=O)[C@@H](NC(=O)[C@@H](CS)Cc2ccccc2)CS[C@H]1c1ccccc1,115,2.7,–

# Now those with a lower IC50 [1], led by results:
IC50 [1] [nM],IC50 [3] [nM],SMILES,ED50 [2] [µmol/kg]
13,–,O=C(O)CN1C(=O)[C@@H](NC(=O)[C@@H](S)Cc2ccccc2)CSc2ccccc21,0.14
22,–,O=C(O)CN1C(=O)[C@@H](NC(=O)[C@@H](CS)Cc2ccccc2)CSC[C@H]1c1ccccc1,–
29,–,O=C(O)CN1C(=O)[C@@H](NC(=O)[C@@H](S)Cc2ccccc2)CSC[C@H]1c1ccccc1,0.49
17,1,O=C(O)CN1C(=O)[C@@H](NC(=O)[C@@H](CS)Cc2ccccc2)CSc2ccccc21,3.96
20,–,O=C(O)CN1C(=O)[C@H](NC(=O)[C@@H](S)Cc2ccccc2)CS[C@@H]1c1ccccc1,0.21
40,99,O=C(O)CN1C[C@@H](c2ccccc2)SC[C@H](NC(=O)[C@@H](S)Cc2ccccc2)C1=O,< 0.15
33,–,O=C(O)CN1C[C@@H](c2ccccc2)SC[C@H](NC(=O)[C@@H](CS)Cc2ccccc2)C1=O,> 1.5
13.8,–,CC1(C)CSC[C@H](NC(=O)[C@@H](S)Cc2ccccc2)C(=O)N1CC(=O)O,–
11.7,–,C[C@@H]1SCC[C@H](NC(=O)[C@@H](S)Cc2ccccc2)C(=O)N1CC(=O)O,–
25,–,O=C(O)CN1C(=O)[C@@H](NC(=O)[C@@H](S)Cc2ccccc2)CS[C@@H]1c1ccccc1,2.75
